Assay results published in patent US10688099B2, “Methods for modulating the amount of RNA transcripts” (PTC Therapeutics, Inc., priority 2013, dated 2020).

Tested on: RNA isoforms in PNN 1-46 SMA type I patient-derived fibroblasts
Assay: RNA Abundance Modulation (RNA isoform abundance, iFPM, HiSeq RNA sequencing)
Assay type: cell-based, human
Settings: 3 μM
Procedure: Cells from a cell line of interest are cultured in conditions sufficient to yield the number of cells capable of generating enough RNA for subsequent sequencing steps. Cells from the tested cell line are contacted with a compound described herein.
To culture said cells, they are seeded, at appropriate concentrations in a volume of media in a cell culture container and incubated for 4, 5, 6, 7, 8, 9, 10, or more hours. A concentrated solution of compound in a vehicle (e.g., DMSO) is then added in sufficient volume to result in the intended final concentration of the compound, for example 100 nM, 500 nM, 1 μM, 5 μM, 10 μM, 15 μM, 20 μM, or more. The cells may also be treated with vehicle alone, as a control. A number of replicates of each concentration or control may be made (e.g., 2 replicates). The cells are then incubated at a constant temperature appropriate for cell culture of the particular cell line (e.g., 37° C.) for 6, 12, 18, 24, 48, or more hours. After incubation, the growth medium is removed and the cells are washed with the appropriate buffer (e.g., PBS). Cells are then removed from adherence to the cell culture container by treatment with a solution containing trypsin, and the trypsin subsequently quenched with the appropriate volume of buffer (e.g., DMEM-FBS). The cells are then pelleted with gentle centrifugation (e.g., ≤90×g centrifugal force) and resuspended in a buffer to lyse the cells for extraction of RNA. The cell lysates may then be frozen (e.g., at −80° C.) or, alternately, may immediately be used in a procedure to purify the RNA (e.g. by use of the RNEASY PLUS® minikit). The RNA from cell lysates is eluted in the appropriate volume of buffer (e.g., RNEASE-FREE H2O®). The resulting purified RNA may then be sequenced (e.g., using RNASeq) or analyzed using a human exon array (e.g., by GENECHIP® human exon array) to determine changes in the RNA levels in those cells treated with compound compared to those cells treated only with DMSO. The purified RNA may also be quantified by other methods known in the art.
Using the RNA data obtained from sequencing, exon array, or other methods, a statistical analysis can reveal changes in the RNA levels of compound-treated compared with control. For example, t-test p-values may be calculated for the data obtained through sequencing and exon array methods in order to compare compound-treated cells to those treated with the DMSO control. […] Analysis of the sequencing and exon array data may then also yield predictions about the cause of the aberrant amount of an RNA transcript in the cells (e.g., perturbation of RNA splicing, RNA transcription, or RNA stability). These predictions may be further confirmed by methods known in the art. For example, RT-PCR and RT-qPCR may be used to confirm the change in amount of RNA transcripts for one or more particular transcripts of interest.
Following the methods described above in Example 1, PNN 1-46 SMA type I patient-derived fibroblasts were treated with 300 nM or 3 μM Compounds 774 and 808 in 0.5% DMSO.
700,000 cells were seeded in 10 mL of medium (DMEM plus 10% FBS) in a T-75 flask. Cells were allowed to attach for at least 4 hrs, after which 50 μL of a 200× compound solution (100% DMSO) was added to each well, and the plate was incubated at 37° C. for 24 hrs.
At the end of the incubation period, the supernatant was removed and the cells where washed with PBS. TrypLE (Invitrogen) express solution was added (e.g. 1.5 mL per one T75 flask). The flasks were incubated for 3 to 5 min at 37° C. The trypsin was then quenched, e.g., by adding 10 mL DMEM-FBS.
Next, the cells were pelleted using gentle centrifugation without exceeding 90×g centrifugal force. The supernatant was removed and the cell pellet was re-suspended in 600 μL RLT buffer (the RLT buffer was supplemented with beta-mercaptoethanol according to the RNeasy protocol manual) by pipetting up and down until the pellet was completely dissolved […]

CCc1nc(C)cn2nc(-c3cc(=O)n4cc(C5CCN(C)CC5)cc(C)c4n3)cc12 [Compound 774]
amp FC (x + 1) (TGFBRAP1 NM_004257): 156.98 | ave Cpd (TGFBRAP1 NM_004257): 0 iFPM | FC (x + 1) (TGFBRAP1 NM_001142621): 1.6224 | L2FC (x + 1) (TGFBRAP1 NM_001142621): 0.698 | L2abs (Cpd-DMSO) (TGFBRAP1 NM_001142621): 7.42 | abs (Cpd-DMSO) (TGFBRAP1 NM_001142621): 172 iFPM | amp FC (x + 1) (TGFBRAP1 NM_001142621): 1.62 | ave Cpd (TGFBRAP1 NM_001142621): 446 iFPM | FC (x + 1) (THADA AK025445): 0.2651 | L2FC (x + 1) (THADA AK025445): −1.915 | L2abs (Cpd-DMSO) (THADA AK025445): 5.17 | abs (Cpd-DMSO) (THADA AK025445): 36 iFPM | amp FC (x + 1) (THADA AK025445): 3.77 | ave Cpd (THADA AK025445): 12 iFPM | FC (x + 1) (THADA AK126824): 0.1808 | L2FC (x + 1) (THADA AK126824): −2.468 | L2abs (Cpd-DMSO) (THADA AK126824): 2.55 | abs (Cpd-DMSO) (THADA AK126824): 6 iFPM | amp FC (x + 1) (THADA AK126824): 5.53 | ave Cpd (THADA AK126824): 0 iFPM | FC (x + 1) (THADA AK307915): 0.2071 | L2FC (x + 1) (THADA AK307915): −2.272 | L2abs (Cpd-DMSO) (THADA AK307915): 3.71 | abs (Cpd-DMSO) (THADA AK307915): 13 iFPM | amp FC (x + 1) (THADA AK307915): 4.83 | ave Cpd (THADA AK307915): 2 iFPM | FC (x + 1) (THADA AL832141): 1.7328 | L2FC (x + 1) (THADA AL832141): 0.793 | L2abs (Cpd-DMSO) (THADA AL832141): 0.72 | abs (Cpd-DMSO) (THADA AL832141): 2 iFPM | amp FC (x + 1) (THADA AL832141): 1.73 | ave Cpd (THADA AL832141): 3 iFPM | FC (x + 1) (THADA AY149632): 1.0000 | L2FC (x + 1) (THADA AY149632): 0.000 | L2abs (Cpd-DMSO) (THADA AY149632): 0 | abs (Cpd-DMSO) (THADA AY149632): 0 iFPM | amp FC (x + 1) (THADA AY149632): 1.00 | ave Cpd (THADA AY149632): 0 iFPM | FC (x + 1) (THADA BX641038): 0.6958 | L2FC (x + 1) (THADA BX641038): −0.523 | L2abs (Cpd-DMSO) (THADA BX641038): 0.60 | abs (Cpd-DMSO) (THADA BX641038): 2 iFPM | amp FC (x + 1) (THADA BX641038): 1.44 | ave Cpd (THADA BX641038): 2 iFPM | FC (x + 1) (THADA NM_022065): 0.3170 | L2FC (x + 1) (THADA NM_022065): −1.658 | L2abs (Cpd-DMSO) (THADA NM_022065): 9.36 | abs (Cpd-DMSO) (THADA NM_022065): 657 iFPM | amp FC (x + 1) (THADA NM_022065): 3.15 | ave Cpd (THADA NM_022065): 304 iFPM | FC (x + 1) (THADA NM_001083953): 0.0135 | L2FC (x + 1) (THADA NM_001083953): −6.211 | L2abs (Cpd-DMSO) (THADA NM_001083953): 6.19 | abs (Cpd-DMSO) (THADA NM_001083953): 73 iFPM | amp FC (x + 1) (THADA NM_001083953): 74.06 | ave Cpd (THADA NM_001083953): 0 iFPM | FC (x + 1) (THADA NM_001271643): 1.1557 | L2FC (x + 1) (THADA NM_001271643): 0.209 | L2abs (Cpd-DMSO) (THADA NM_001271643): 2.41 | abs (Cpd-DMSO) (THADA NM_001271643): 5 iFPM | amp FC (x + 1) (THADA NM_001271643): 1.16 | ave Cpd (THADA NM_001271643): 38 iFPM | FC (x + 1) (THADA NM_001271644): 4.4176 | L2FC (x + 1) (THADA NM_001271644): 2.143 | L2abs (Cpd-DMSO) (THADA NM_001271644): 3.80 | abs (Cpd-DMSO) (THADA NM_001271644): 14 iFPM | amp FC (x + 1) (THADA NM_001271644): 4.42 | ave Cpd (THADA NM_001271644): 17 iFPM | FC (x + 1) (THADA NR_073394): 0.6844 | L2FC (x + 1) (THADA NR_073394): −0.547 | L2abs (Cpd-DMSO) (THADA NR_073394): −0.13 | abs (Cpd-DMSO) (THADA NR_073394): 1 iFPM | amp FC (x + 1) (THADA NR_073394): 1.46 | ave Cpd (THADA NR_073394): 1 iFPM | FC (x + 1) (TIMP2 AK294290): 0.0109
